Measured values from patent US20230382871A1, “CSF1R KINASE INHIBITOR AND USE THEREOF” (SHANGHAI INSTITUTE OF MATERIA MEDICA, CHINESE ACADEMY OF …, priority 2020, published 2023).
Where “and” joins values, the source holds several entries; their conditions need not be identical. Equal values may be shown once.

Columns and labels:
[1] = system: BMDM cells; experiment: CCK8 cell proliferation inhibition assay on CSF1-stimulated bone marrow-derived macrophages; format: cell-based, mice (BALB/c); details: Mus musculus, 72 h exposure
Experimental: Mice (BALB/c) were subjected to euthanasia and then immersed in 75% alcohol for 3-5 min. The tibias and femurs of the mice were removed with ophthalmic forceps and ophthalmic clips on an ultraclean table. The tibial and femoral joints were cut off and bone marrow cells were washed out with a sterile buffer. Bone marrow cells were filtered with a 70 µm nylon membrane. The filtrate was centrifuged and the supernatant was discarded. An erythrocyte lysate was added to the pellets, which were allowed to incubate for 3-4 min. Then, a sterile buffer was added to stop the lysis reaction. The reactant was centrifuged and the supernatant was discarded, thereby yielding bone marrow cell pellets. The cells were cultured in 1640 medium (supplemented with FBS and 10 ng/mL of CSF1) for 5 to 7 days and identified as macrophages by flow cytometry. CCK8 cell counting kits were used in this assay. Bone marrow-derived macrophages, after induction by CSF1 for 5 to 7 days, were seeded into 96-well culture plates and allowed to incubate overnight. Then, the cells were exposed to compounds at various concentrations for 72 h. A blank control group was set. 10 μL of CCK8 reagent was added to each well and the places were placed in an incubator for 4 to 12 h. The plates were read with a microplate reader at a wavelength of 450 nm. […] Each experiment was independently repeated for three times.

[2] = system: M2-type macrophage marker CD206 in HT-29 tumor tissues; experiment: Immunohistochemistry of M2-type macrophage marker CD206 in HT-29 tumor tissues; format: in vivo, nude mice; details: Compound I 5, 10, 20 mg/kg; Axitinib 40 mg/kg
Experimental: (§1) At the end of the in vivo experiments, U87MG and HT-29 xenografts in nude mice were removed and fixed with […] to prepare paraffin sections.
(§2) Expression of individual proteins was assessed using multiplicative quick score method (MQS). This evaluation method takes into account both the staining intensity and the staining range. The method estimates the proportion of positive cells and gives a range score from 1 to 6 (1=1%-4%; 2=5%-19%; 3=20%-39%; 4=40%-59%; 5=60%-79%; 6=80%-100%). The average intensity score of positive stained cells was 0 to 3 (0=no staining; 1=weak staining; 2=moderate staining; 3=strong staining). The total score a (minimum 0 and maximum 18) is then calculated by multiplying the range score by the intensity score.
For detecting the changes in the macrophage marker F4/80 and M2-type macrophage marker CD206 in the HT-29 tumor tissues, quantitative analysis (solvent: n=12, blank preparation: n=6, Compound I (5 mg/kg): n=6, Compound I (10 mg/kg): n=6, Compound I (20 mg/kg): n=6, Axitinib: n=6) was performed on all sections and the experimental data were analyzed for significant differences using the t-test. * denotes p<0.05 as compared with the blank preparation group, ** denotes p<0.01 as compared with the blank preparation group, and denotes p<0.001 as compared with the blank preparation group.

[3] = system: macrophage marker F4/80 in HT-29 tumor tissues; experiment: Immunohistochemistry of macrophage marker F4/80 in HT-29 tumor tissues; format: in vivo, nude mice; details: Compound I 5, 10, 20 mg/kg; Axitinib 40 mg/kg
Experimental: At the end of the in vivo experiments, U87MG and HT-29 xenografts in nude mice were removed and fixed with […] to prepare paraffin sections. Expression of individual proteins was assessed using multiplicative quick score method (MQS). This evaluation method takes into account both the staining intensity and the staining range. […] The average intensity score of positive stained cells was 0 to 3 (0=no staining; 1=weak staining; 2=moderate staining; 3=strong staining). The total score a (minimum 0 and maximum 18) is then calculated by multiplying the range score by the intensity score.

[4] = system: M2-type macrophage marker CD206 in U87MG tumor tissues; experiment: Immunohistochemistry of M2-type macrophage marker CD206 in U87MG tumor tissues; format: in vivo, nude mice
Experimental: as §1, §2
(§3) For detecting the changes in the macrophage marker F4/80 and M2-type macrophage marker CD206 in the U87MG tumor tissues, quantitative analysis (solvent: n=6, blank preparation: n=6, Compound I (10 mg/kg): n=6, Compound I (20 mg/kg): n=6, Compound I (40 mg/kg): n=6, Axitinib: n=4) was performed on all sections and the experimental data were analyzed for significant differences using the t-test. * denotes p<0.05 as compared with the blank preparation group, ** denotes p<0.01 as compared with the blank preparation group, and denotes p<0.001 as compared with the blank preparation group.

[5] = system: mouse astrocytoma DBT subcutaneous xenografts; experiment: Mouse astrocytoma DBT subcutaneous tumor model, alone or combined with anti-PD-1 antibody; format: in vivo, BALB/c mice; details: alone, 5 mg/kg po twice a day, 28 days
Experimental: Mouse astrocytoma DBT cell suspensions were injected subcutaneously into the right axillary fossa of BALB/c mice under aseptic conditions. The diameters of the subcutaneous xenografts in nude mice were measured with a vernier caliper. The animals were randomly grouped after the xenografts reached an average volume of 100 to 200 mm^3. Compound I was administered orally at a dose of 5 mg/kg (alone or in combination with an anti-PD-1 antibody) twice a day for 28 consecutive days. An anti-PD-1 antibody (Bio X Cell, InVivoMAb anti-mouse PD-1 (CD279) (cat. No. BE0146)) was administered intraperitoneally at a dose of 10 mg/kg (alone or in combination with Compound I) once every three days for 28 consecutive days. Throughout the experiment, the diameters of the xenografts were measured twice a week and the mice were weighed at the same time. The tumor volume (TV) was calculated as TV=½×a×b^2 where “a” and “b” denote the length and width of a tumor, respectively. The relative tumor volume (RTV) was calculated from the measurement results with the calculation formula RTV=Vt/V0, in which V0 is the tumor volume measured upon administration after grouping (i.e., D0) and Vt is the tumor volume from each measurement.
For all dose groups, n=9. The experimental data were analyzed for significant differences using the t-test. […]

[6] = system: human glioma U87MG brain in situ transplantation; experiment: Survival in U87MG brain in situ transplantation model in nude mice; format: in vivo, BALB/cA nude mice; details: for ILS (%), Increase in Life Span: vs solvent group MST
[7] = system: macrophage marker F4/80 in U87MG tumor tissues; experiment: Immunohistochemistry of macrophage marker F4/80 in U87MG tumor tissues; format: in vivo, nude mice; details: 40 mg/kg, compared with blank preparation group
Experimental: as §1, §2, §3

[8] = system: solid tumors, such as brain gliomas; experiment: Clinical trial, preliminary efficacy; format: in vivo; details: particularly high-grade brain gliomas, data not shown
[9] = 40 mg/kg, implantation day as Day 0

Cc1cc(NC(=O)c2cccc3cc(-c4cccc5[nH]nc(N)c45)ccc23)ccc1F [Compound I]
IC50 [1]: 93 nM | expression of CD206, HT-29 tumor tissue [2]: inhibited the expression of F4/80 and CD206 in a dose-dependent manner | expression of F4/80, HT-29 tumor tissue [3]: inhibited the expression of F4/80 and CD206 in a dose-dependent manner | inhibition rate of CD206 expression, U87MG tumor tissue ([4]; 10 mg/kg dose group): 34.48% | inhibition rate of CD206 expression, U87MG tumor tissue ([4]; 40 mg/kg dose group): 70.69% | in vivo growth of DBT tumors [5]: no significant inhibitory activity | Median survival time, MST ([6]; 20 mg/kg po twice a day from Day 8): 54 days and 54.0 days | ILS (%), Increase in Life Span ([6]; 20 mg/kg): 17.39% | Median survival time, MST ([6]; 40 mg/kg po twice a day from Day 8): 58.5 days | day of first death in the group [6, 9]: 43 days | day of last death in the group [6, 9]: 75 days | ILS (%), Increase in Life Span ([6]; 40 mg/kg): 27.17% | expression of F4/80 in macrophages, U87MG tumor tissue [7]: significantly reduced | preliminary efficacy in clinical trial [8]: good therapeutic efficacy
